The test system of the test is Enterococcus faecalis. Nature of the test: Antibacterial activity against vancomycin-resistant Enterococcus faecalis after 16 hrs by microtiter plate assay. Format: functional.

As usually defined, the MIC is the least concentration at which growth counts as inhibited. Higher therefore signals a less susceptible organism.

Molecules are shown by their SMILES. ≈ marks a conversion by molar mass, not a printed value.

`CC(/C=C/C(O)=C1/C(=O)CNC1=O)=C\[C@@H](C)[C@H]1O[C@@]2(C)O[C@H](C(=O)[C@H]3O[C@]32C)[C@@H]1C` [TIRANDAMYCIN A] showed an MIC of 2.25 µM (≈ 0.939 µg/mL). The figure for `CC(/C=C/C(O)=C1/C(=O)CNC1=O)=C\[C@@H](C)[C@H]1O[C@@]2(C)O[C@H](C(=O)[C@H]3O[C@]32CO)[C@@H]1C` [TIRANDAMYCIN B] is 100 µM (≈ 43.3 µg/mL). The figure for `CC1=CC[C@H]2O[C@]1(C)O[C@H]([C@H](C)/C=C(C)/C=C/C(O)=C1/C(=O)CNC1=O)[C@H]2C` [TIRANDAMYCIN C] is 110 µM (≈ 42.6 µg/mL); for `CC1=CC(=O)[C@H]2O[C@]1(C)O[C@H]([C@H](C)/C=C(C)/C=C/C(O)=C1/C(=O)CNC1=O)[C@H]2C` [TIRANDAMYCIN D] it is more than 9 µM.
